Among the data in US10189854B2, “Substituted pyrimidine compounds” (Grünenthal GmbH, priority 2014, dated 2019) are IC50 values, retold here.

In general, IC50 refers to the concentration needed to halve the response being measured.

Where only a bound is given, the exact number is not on record here.

Chain of human PDE4B1 (Q07343 whole entry): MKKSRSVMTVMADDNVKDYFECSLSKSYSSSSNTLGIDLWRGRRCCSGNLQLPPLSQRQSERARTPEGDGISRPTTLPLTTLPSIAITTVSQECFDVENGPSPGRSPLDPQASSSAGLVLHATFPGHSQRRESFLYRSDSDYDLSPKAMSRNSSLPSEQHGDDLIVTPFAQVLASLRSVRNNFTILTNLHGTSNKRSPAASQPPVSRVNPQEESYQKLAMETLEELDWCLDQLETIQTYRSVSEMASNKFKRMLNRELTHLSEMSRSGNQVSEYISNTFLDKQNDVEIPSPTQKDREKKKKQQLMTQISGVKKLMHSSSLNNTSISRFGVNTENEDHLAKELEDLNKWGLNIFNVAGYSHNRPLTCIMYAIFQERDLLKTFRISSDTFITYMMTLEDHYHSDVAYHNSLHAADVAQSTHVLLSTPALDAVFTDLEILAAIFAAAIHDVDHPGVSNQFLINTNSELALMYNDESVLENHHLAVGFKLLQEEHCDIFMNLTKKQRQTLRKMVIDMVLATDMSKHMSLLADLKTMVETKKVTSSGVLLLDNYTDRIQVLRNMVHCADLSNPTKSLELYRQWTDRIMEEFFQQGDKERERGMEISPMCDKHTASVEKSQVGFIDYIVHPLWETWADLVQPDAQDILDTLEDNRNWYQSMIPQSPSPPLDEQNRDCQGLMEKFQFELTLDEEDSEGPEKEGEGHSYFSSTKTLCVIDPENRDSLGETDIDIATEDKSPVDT

This assay deals with human PDE4B1 (Homo sapiens (Human), UniProt Q07343). In words: TR-FRET assay using the LANCE Ultra cAMP kit to determine the activity of hPDE4B1. It is filed as biochemical. The following applies: IC50 inhibition of PDE4B, mean. The text has this:
TR-FRET Assay Using the LANCE® Ultra cAMP Kit to Determine the Activity of hPDE4B1
The effects of the compounds on the activity of the human PDE4B1 was quantified by measuring the production of 5′AMP from cAMP using a human recombinant enzyme expressed in Sf9 cells and the LANCE® Ultra cAMP kit, a TR-FRET detection method from PerkinElmer. The human PDE4B1 enzyme was purchased from SignalChem Lifesciences (Catalog# P92-31BG, Lot# H296-2).
The test compound, reference compound or water (control) was mixed with the enzyme (0.96 U) in a reaction buffer containing 50 mM Tris-HCl, 50 mM MgCl2 and 5 mM DTT (pH 8.5). Thereafter, the reaction was initiated by addition of 500 nM cAMP (substrate) and the mixture was incubated for 30 minutes at room temperature. For control basal measurements, the enzyme was omitted from the reaction mixture. After 30 minutes, the reaction was stopped and diluted by a factor of 100 with the reaction buffer supplemented with 500 μM IBMX. The fluorescence donor (europium chelate-labeled cAMP) and the fluorescence acceptor (anti-cAMP antibody labeled with the ULight™ dye) were then added together with 500 μM IBMX to a 10 μl aliquot. After 60 minutes, the fluorescence transfer corresponding to the amount of residual cAMP was measured at λex=337 nm, λem=620 nm and λem=665 nm using a microplate reader (PHERAstar, BMG). The enzyme activity was determined by dividing the signal measured at 665 nm by that measured at 620 nm (ratio) multiplied by 10000. The results were expressed as percent inhibition of the control enzyme activity. IC50 values (IC50=concentration causing a half-maximal inhibition of control specific activity) were derived from dose response measurements with ten different concentrations (n=3; N=1-3).
Several compounds according to the invention are tested with above mentioned assay.
For orientation: In TR-FRET formats the signal depends on donor and acceptor labels being close together.
In turn, `O=C(c1ccc2c(c1)N(c1ncc(-c3ccccc3)cn1)CC21CC1)N1C[C@H]2C[C@@H]1CN2` [Compound 248, [(1R,4R)-2,5-Diazabicyclo[2.2.1]heptan-2-yl]-[1-(5-phenyl-pyrimidin-2-yl)-spiro[1,2-dihydro-indole-3,1′-cyclopropane]-6-yl]-methanone] had an IC50 of 0.1 to 1 µM.

The compound `CN(CC(N)=O)C(=O)c1ccc2c(c1)N(c1ncc(-c3ccccn3)cn1)CC21CC1` [Compound 320, N-(2-amino-2-oxoethyl)-N-methyl-1′-(5-(pyridin-2-yl)pyrimidin-2-yl)spiro[cyclopropane-1,3′-indoline]-6′-carboxamide] displayed an IC50 below 0.1 µM.

The compound `CN(CCO)C(=O)c1ccc2c(c1)N(c1ncc(-c3cc([S+](C)[O-])ccn3)cn1)CC21CC1` (stereo not shown) [Compound 288, N-(2-Hydroxy-ethyl)-N-methyl-1-[5-[4-(methylsulfinyl)-pyridin-2-yl]-pyrimidin-2-yl]-spiro[1,2-dihydro-indole-3,1′-cyclopropane]-6-carboxylic acid amide] had a half-inhibitory concentration (IC50) below 0.1 µM.

For `CCNc1ccnc(-c2cnc(N3CC4(CC4)c4ccc(C(=O)N5CCOCC5)cc43)nc2)c1` [Compound 292, [1-[5-(4-Ethylamino-pyridin-2-yl)-pyrimidin-2-yl]-spiro[1,2-dihydro-indole-3,1′-cyclopropane]-6-yl]-morpholin-4-yl-methanone], the IC50 was below 0.1 µM.

In the case of `CC(CO)N(C)C(=O)c1ccc2c(c1)N(c1ncc(-c3ccccc3F)cn1)CC21CC1` (stereo not shown) [Compound 285, 1-[5-(2-Fluorophenyl)-pyrimidin-2-yl]-N-(2-hydroxy-1-methyl-ethyl)-N-methyl-spiro[1,2-dihydro-indole-3,1′-cyclopropane]-6-carboxylic acid amide], the IC50 was below 0.1 µM.

`COc1cc(OC)nc(-c2cnc(N3CC4(CC4)c4ccc(C(=O)N(C)CCO)cc43)nc2)c1` [Compound 328, 1-[5-(4,6-Dimethoxy-pyridin-2-yl)-pyrimidin-2-yl]-N-(2-hydroxy-ethyl)-N-methyl-spiro[1,2-dihydro-indole-3,1′-cyclopropane]-6-carboxylic acid amide] returned an IC50 below 0.1 µM.

Compound `CN(CCO)C(=O)c1ccc2c(c1)N(c1ncc(-c3nc(CC#N)cs3)cn1)CC21CC1` [Compound 350, 1-[5-[4-(Cyano-methyl)-thiazol-2-yl]-pyrimidin-2-yl]-N-(2-hydroxy-ethyl)-N-methyl-spiro[1,2-dihydro-indole-3,1′-cyclopropane]-6-carboxylic acid amide] yielded an IC50 below 0.1 µM.

With `CN(CCO)C(=O)c1ccc2c(c1)N(c1ncc(-c3cc(C(C)(C)O)ccc3F)cn1)CC21CC1` [Compound 309, 1-[5-[2-Fluoro-5-(1-hydroxy-1-methyl-ethyl)-phenyl]-pyrimidin-2-yl]-N-(2-hydroxy-ethyl)-N-methyl-spiro[1,2-dihydro-indole-3,1′-cyclopropane]-6-carboxylic acid amide], the half-maximal inhibitory concentration (IC50) is below 0.1 µM.

Turning to `CCNc1ccnc(-c2cnc(N3CC4(CC4)c4ccc(C(=O)N(C)CCO)cc43)nc2)c1` [Compound 316, 1-[5-(4-Ethylamino-pyridin-2-yl)-pyrimidin-2-yl]-N-(2-hydroxy-ethyl)-N-methyl-spiro[1,2-dihydro-indole-3,1′-cyclopropane]-6-carboxylic acid amide], the IC50 is below 0.1 µM.

`CN(CCO)C(=O)c1ccc2c(c1)N(c1ncc(-c3ccc(F)cn3)cn1)CC21CC1` [Compound 232, 1-[5-(5-Fluoro-pyridin-2-yl)-pyrimidin-2-yl]-N-(2-hydroxy-ethyl)-N-methyl-spiro[1,2-dihydro-indole-3,1′-cyclopropane]-6-carboxylic acid amide] showed an IC50 below 0.1 µM.

Turning to `Cc1cc(N)cc(-c2cnc(N3CC4(CC4)c4ccc(C(=O)N5CCOCC5)cc43)nc2)n1` [Compound 259, [1-[5-(4-Amino-6-methyl-pyridin-2-yl)-pyrimidin-2-yl]-spiro[1,2-dihydro-indole-3,1′-cyclopropane]-6-yl]-morpholin-4-yl-methanone], the IC50 is below 0.1 µM.

`N[C@@H]1CCN(C(=O)c2ccc3c(c2)N(c2ncc(-c4cc(C5CC5)ccn4)cn2)CC32CC2)C1` [Compound 335, (R)-(3-aminopyrrolidin-1-yl)(1′-(5-(4-cyclopropylpyridin-2-yl)pyrimidin-2-yl)spiro[cyclopropane-1,3′-indolin]-6′-yl)methanone] gave an IC50 below 0.1 µM.

With `CN(CCO)C(=O)c1ccc2c(c1)N(c1ncc(-c3cn(C)cn3)cn1)CC21CC1` [Compound 323, N-(2-Hydroxy-ethyl)-N-methyl-1-[5-(1-methyl-1H-imidazol-4-yl)-pyrimidin-2-yl]-spiro[1,2-dihydro-indole-3,1′-cyclopropane]-6-carboxylic acid amide], the IC50 was below 0.1 µM.

`O=C(c1ccc2c(c1)N(c1ncc(-c3ccccc3F)cn1)CC21CC1)N1CCC[C@H](CO)C1` [Compound 317, [1-[5-(2-Fluorophenyl)-pyrimidin-2-yl]-spiro[1,2-dihydro-indole-3,1′-cyclopropane]-6-yl]-[(3S)-3-(hydroxymethyl)-piperidin-1-yl]-methanone] registered an IC50 below 0.1 µM.

As for `CN(CC(N)=O)C(=O)c1ccc2c(c1)N(c1ncc(-c3cc(C4CC4)ccn3)cn1)CC21CC1` [Compound 337, N-(Carbamoyl-methyl)-1-[5-(4-cyclopropyl-pyridin-2-yl)-pyrimidin-2-yl]-N-methyl-spiro[1,2-dihydro-indole-3,1′-cyclopropane]-6-carboxylic acid amide], the IC50 was below 0.1 µM.

With `COc1cnnc(-c2cnc(N3CC4(CC4)c4ccc(C(=O)N(C)CCO)cc43)nc2)c1` [Compound 340, N-(2-Hydroxy-ethyl)-1-[5-(5-methoxy-pyridazin-3-yl)-pyrimidin-2-yl]-N-methyl-spiro[1,2-dihydro-indole-3,1′-cyclopropane]-6-carboxylic acid amide], the IC50 is below 0.1 µM.

With `O=C(c1ccc2c(c1)N(c1ncc(-c3cc(C4(O)CC4)ccn3)cn1)CC21CC1)N1CCOCC1` [Compound 351, [1-[5-[4-(1-Hydroxy-cyclopropyl)-pyridin-2-yl]-pyrimidin-2-yl]-spiro[1,2-dihydro-indole-3,1′-cyclopropane]-6-yl]-morpholin-4-yl-methanone], the IC50 was below 0.1 µM.

For `NC(=O)CN1CCN(C(=O)c2ccc3c(c2)N(c2ncc(-c4ccccc4F)cn2)CC32CC2)CC1` [Compound 236, 2-[4-[1-[5-(2-Fluorophenyl)-pyrimidin-2-yl]-spiro[1,2-dihydro-indole-3,1′-cyclopropane]-6-carbonyl]-piperazin-1-yl]-acetamide], the IC50 is 0.1 to 1 µM.

Consider `Cc1cnnc(-c2cnc(N3CC4(CC4)c4ccc(C(=O)N(C)CCO)cc43)nc2)c1` [Compound 290, N-(2-hydroxyethyl)-N-methyl-1′-(5-(5-methylpyridazin-3-yl)pyrimidin-2-yl)spiro[cyclopropane-1,3′-indoline]-6′-carboxamide], for which the IC50 is below 0.1 µM.

For the compound `CN(CCO)C(=O)c1ccc2c(c1)N(c1ncc(-c3csc(CO)n3)cn1)CC21CC1` [Compound 326, N-(2-Hydroxy-ethyl)-1-[5-[2-(hydroxymethyl)-thiazol-4-yl]-pyrimidin-2-yl]-N-methyl-spiro[1,2-dihydro-indole-3,1′-cyclopropane]-6-carboxylic acid amide], the IC50 is below 0.1 µM.

Take `Cc1cccc(-c2cnc(N3CC4(CC4)c4ccc(C(=O)N(C)C)cc43)nc2)n1` [Compound 303, N,N-Dimethyl-1-[5-(6-methyl-pyridin-2-yl)-pyrimidin-2-yl]-spiro[1,2-dihydro-indole-3,1′-cyclopropane]-6-carboxylic acid amide]: the IC50 is below 0.1 µM.

As for `O=C(c1ccc2c(c1)N(c1ncc(-c3ccccc3F)cn1)CC21CC1)N1CCO[C@H](CO)C1` [Compound 354, [1-[5-(2-Fluorophenyl)-pyrimidin-2-yl]-spiro[1,2-dihydro-indole-3,1′-cyclopropane]-6-yl]-[(2S)-2-(hydroxymethyl)-morpholin-4-yl]-methanone], the IC50 was below 0.1 µM.

On to `COC(=O)CN(C)C(=O)c1ccc2c(c1)N(c1ncc(-c3ccccc3F)cn1)CC21CC1` [Compound 246, 2-[[1-[5-(2-Fluorophenyl)-pyrimidin-2-yl]-spiro[1,2-dihydro-indole-3,1′-cyclopropane]-6-carbonyl]-methyl-amino]acetic acid methyl ester], for which the IC50 is 0.1 to 1 µM.

`CN(CCO)C(=O)c1ccc2c(c1)N(c1ncc(-c3cc(C(C)(C)O)ccn3)cn1)CC21CC1` [Compound 314, N-(2-Hydroxy-ethyl)-1-[5-[4-(1-hydroxy-1-methyl-ethyl)-pyridin-2-yl]-pyrimidin-2-yl]-N-methyl-spiro[1,2-dihydro-indole-3,1′-cyclopropane]-6-carboxylic acid amide]: the IC50 is below 0.1 µM.

`Cc1ccnc(-c2cnc(N3CC4(CC4)c4ccc(C(=O)N5CC[C@@H](N)C5)cc43)nc2)c1` [Compound 334, [(3R)-3-Amino-pyrrolidin-1-yl]-[1-[5-(4-methyl-pyridin-2-yl)-pyrimidin-2-yl]-spiro[1,2-dihydro-indole-3,1′-cyclopropane]-6-yl]-methanone] displayed an IC50 below 0.1 µM.
